US20080125409A1, “1,5-Diheterocycle-1H-Triazole Derivative” (DAIICHI PHARMACEUTICAL CO., LTD., priority 2004, published 2008)

Legend:
[1] = test system: platelet-rich plasma (PRP), collagen-induced platelet aggregation; test: Collagen-stimulated platelet aggregation inhibition in human platelet-rich plasma; assay type: cell-based; conditions: 2 min, 2 min at 37° C. with compound
Procedure: Platelet Aggregation Suppressing Action
Human blood was collected using a 3.13% solution of sodium citrate as an anticoagulant, in a volume 1/10 of the blood volume, and was centrifuged at 180 g for 10 minutes to separate platelet-rich plasma (PRP) from the blood. The PRP in the upper layer was isolated, and then the lower layer was centrifuged at 1600 g for 10 minutes to isolate the platelet-poor plasma (PPP) in the upper layer. 1 μL of a solution of the compound of the Examples) was added to 200 μL of the PRP, and the mixture was allowed to stand for 2 minutes at 37° C. Then, 2 μL of collagen was added thereto, so as to induce platelet aggregation. The rate of platelet aggregation was measured using a PAM-12C (SSR Engineering). By taking the light transmittance of the PPP as the value indicating 100% aggregation, the rates of platelet aggregation at various concentrations of the compound of the Examples were determined, and the IC50 value was calculated.

[2] = target: T1, COX-1 (Ovis aries, UniProt P05979); test: Cyclooxygenase-1 (COX-1) inhibitory effect (Cayman COX Inhibitor Screening Assay Kit, PGF2α ELISA); assay type: biochemical; conditions: in the presence of 50 μM of the compound; PGF2α production without compound regarded as 100%; read-out: COX inhibitory activity COX-1 (rate of COX-1 inhibition)
T1 construct: purchased Cayman Chemical Company 560101 and 560121
T1 sequence (P05979 25-600): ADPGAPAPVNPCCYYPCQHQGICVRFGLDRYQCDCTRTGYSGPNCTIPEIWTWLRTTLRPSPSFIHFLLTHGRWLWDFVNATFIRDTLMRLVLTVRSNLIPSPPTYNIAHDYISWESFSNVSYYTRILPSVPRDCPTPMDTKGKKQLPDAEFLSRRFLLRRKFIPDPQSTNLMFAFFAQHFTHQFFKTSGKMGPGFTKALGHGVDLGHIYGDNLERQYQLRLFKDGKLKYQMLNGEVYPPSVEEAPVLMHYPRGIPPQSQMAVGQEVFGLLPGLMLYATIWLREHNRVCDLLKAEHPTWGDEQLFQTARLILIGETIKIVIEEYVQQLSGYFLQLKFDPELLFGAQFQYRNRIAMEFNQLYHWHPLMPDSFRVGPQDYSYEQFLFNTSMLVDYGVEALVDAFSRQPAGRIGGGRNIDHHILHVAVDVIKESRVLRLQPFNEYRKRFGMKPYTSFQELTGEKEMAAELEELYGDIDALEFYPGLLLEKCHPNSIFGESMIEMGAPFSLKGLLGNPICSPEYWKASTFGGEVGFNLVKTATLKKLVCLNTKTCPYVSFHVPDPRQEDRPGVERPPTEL
Text: Cyclooxygenase-1 (COX-1) Inhibitory Effect
For the measurement of the COX-1 inhibitory activity of the compound of the Examples, a COX Inhibitor Screening Assay Kit manufactured by Cayman Chemical Company (Catalog Nos. 560101 and 560121) was used.
Before starting the measurement, a reaction buffer, heme, arachidonic acid, SnCl2, EIA buffer, a washing buffer, prostaglandin (PG)-screening EIA standard solution, PG-screening acetylcholinesterase (AchE), a tracer […], and PG-screening EIA antiserum were provided.
(1) Production of PGF2α by COX-1
A reaction solution containing the compound of the Examples (50 μM) and COX-1 was allowed to stand at 37° C. for 10 minutes, then 10 μl of arachidonic acid was added thereto, and the resultant mixture was allowed to stand at 37° C. for 2 minutes. After the reaction, 50 μl of 1 N hydrochloric acid was added to the reaction mixture to thereby stop the reaction, and 100 μl of a SnCl2 solution was added thereto. The resultant mixture was allowed to stand at room temperature for 5 minutes.
(2) Quantification of PGF2α by ELISA
50 μl of antiserum (rabbit anti-PGF2α antibody) was added to each of the wells of a 96-well plate coated with mouse anti-rabbit IgG. Then, 50 μl of a solution prepared by diluting the aforementioned reaction solution for the production of PGF2α to 2000-folds, and 50 μl of an AchE tracer were added sequentially to the wells, and the plate was allowed to stand at room temperature for 18 hours. Each well was washed 5 times with the washing buffer to remove excessive AchE tracer, and then 200 μl of Ellman reagent was added to each well. The plate was kept in a dark room for 60 minutes, and then, absorbance at 405 nm was measured.
(3) Calculation of Inhibitory Activity of the Compound of the Examples
A standard curve was produced using a PG-screening EIA standard solution, and the amount of PGF2α production was determined from the absorbance obtained in the above. The rate of COX-1 inhibition in the presence of 50 μM of the compound of the Examples was calculated.

Structure (SMILES)	IC50 [1]	inhibition at 50 µM [2]
COc1ccc(-n2nc(C(=O)NC(C)(C)C)nc2-c2ccccn2)cn1 [Example 1, N-tert-Butyl-1-(6-methoxy-3-pyridyl)-5-(2-pyridyl)-1H-1,2,4-triazole-3-carboxamide]	40 nM	7.5%
COc1ccc(-n2nc(C(=O)NC(C)(C)C)nc2-c2ccc(C#N)cn2)cn1 [Example 3, N-tert-Butyl-5-(5-cyano-2-pyridyl)-1-(6-methoxy-3-pyridyl)-1H-1,2,4-triazole-3-carboxamide]	160 nM	19.5%
COc1ccc(-n2nc(C(=O)NC(C)(C)C)nc2-c2cnc(C)cn2)cn1 [Example 6, N-tert-Butyl-1-(6-methoxy-3-pyridyl)-5-(5-methyl-2-pyrazinyl)-1H-1,2,4-triazole-3-carboxamide]	170 nM	-15.8%
COc1ccc(-n2nc(C(=O)NC(C)(C)C)nc2-c2ccc(Cl)cn2)cn1 [Example 11, N-tert-Butyl-5-(5-chloro-2-pyridyl)-1-(6-methoxy-3-pyridyl)-1H-1,2,4-triazole-3-carboxamide]	88 nM	–
COc1ccc(-n2nc(C(=O)NC(C)(C)C)nc2-c2ccc(N)cn2)cn1 [Example 14, 5-(5-Amino-2-pyridyl)-1-(6-methoxy-3-pyridyl)-1H-1,2,4-triazole-3-carboxylic acid N-tert-butylamide]	130 nM	–
COc1ccc(-n2nc(C(=O)NCC(C)(C)C)nc2-c2ccc(C)cn2)cn1 [Example 18, 1-(6-Methoxy-3-pyridyl)-5-(5-methyl-2-pyridyl)-1H-1,2,4-triazole-3-carboxylic acid N-neopentylamide]	13 nM	–
COc1ccc(-n2nc(C(=O)NC(C)C)nc2-c2ccccn2)cn1 [Example 22, N-isoPropyl-1-(6-methoxy-3-pyridyl)-5-(2-pyridyl)-1H-1,2,4-triazole-3-carboxamide]	530 nM	–
COc1ccc(-n2nc(C(=O)N3CCN(C)CC3)nc2-c2ccc(C)cn2)cn1 [Example 29, 1-[1-(6-Methoxy-3-pyridyl)-5-(5-methyl-2-pyridyl)-1H-1,2,4-triazole-3-carbonyl]-4-methylpiperazine]	220 nM	-23.1%
Cc1ccc(-c2nc(C(=O)NC(C)(C)C)nn2-c2ccc(C)nc2)nc1 [Example 35, N-tert-Butyl-1-(6-methyl-3-pyridyl)-5-(5-methyl-2-pyridyl)-1H-1,2,4-triazole-3-carboxamide]	120 nM	-17.2%
COc1ccc(-n2nc(C(=O)N3CCC[C@H]3CF)nc2-c2ccc(C)cn2)cn1 [Example 37, (2S)-1-[1-(6-Methoxy-3-pyridyl)-5-(5-methyl-2-pyridyl)-1H-1,2,4-triazole-3-carbonyl]-2-fluoromethylpyrrolidine]	16 nM	6.6%
COc1ccc(-n2nc(C(=O)N3CCOCC3)nc2-c2ccc(C)cn2)cn1 [Example 38, 4-[1-(6-Methoxy-3-pyridyl)-5-(5-methyl-2-pyridyl)-1H-1,2,4-triazole-3-carbonyl]morpholine]	250 nM	0.9%
COc1ccc(-n2nc(C(=O)N3CCC(F)(F)CC3)nc2-c2ccc(CO)cn2)cn1 [Example 41, 1-[5-(5-Hydroxymethyl-2-pyridyl)-1-(6-methoxy-3-pyridyl)-1H-1,2,4-triazole-3-carbonyl]-4,4-difluoropiperidine]	220 nM	4.6%
COc1ccc(-n2nc(C(=O)NC3(C)CC3)nc2-c2ccc(C)cn2)cn1 [Example 44, N-(1-Methylcyclopropyl)-1-(6-methoxy-3-pyridyl)-5-(5-methyl-2-pyridyl)-1H-1,2,4-triazole-3-carboxamide]	220 nM	–
